In US6906035B2, “Antimicrobial cationic peptides” (priority 1995, dated 2005):
“And” between values parts separate entries of the source, which are not always exact repeats. Equal entries are not always repeated. Where two headings read alike, the source gives them in different places.

Experiments:
P. aeruginosa [1] = test system: P. aeruginosa
Protocol: (§1) FICs are performed by checkerboard titrations of peptides in one dimension of a microtiter plate, and of antibiotics in the other dimension, for example. The FIC is calculated by looking at the impact of one antibiotic on the MIC of the other and vice versa. […] Preferably, an FIC of less than 0.5 is obtained for synergism. As used herein, FIC can be determined as follows: [formula]
(§2) Briefly, cells were grown overnight at 37° C. in LB-S (Luria broth without any salt supplement) and diluted one in 10,000 in the same medium to give concentrations of about 10^4 to 10^5 CFU/ml. The broth dilutions were set up in a 96 well microtiter plate by putting 200 μl of LB-S containing the initial concentration of antibiotic or compound in column 1 and 100 μl of the same medium in columns 2-12. The compounds were diluted by taking 100 μl of broth from column 1 and mixing it with column 2, resulting in a one in two dilution. This was continued to column 10. Finally, 10 μl of bacteria were pipetted into columns 1-11, and the plates incubated overnight at 37° C. The next day the plates were scored for growth in the wells, and the MIC determined.

S. epidermis = settings: S. epidermis
Protocol: as §1, §2

A. calcoaceticus [2] = assay: MIC, broth dilution in LB-S; format: cell-based; settings: additional MICs
Protocol: (§3) The biological activity of the peptides can be determined by standard methods known to those of skill in the art, such as “minimal inhibitory concentration (MIC)” assay described in the present examples, whereby the lowest concentration at which no change in OD is observed for a given period of time is recorded as MIC. Alternatively, “fractional inhibitory concentration (FIC)” is also useful for determination of synergy between the peptides of the invention, or the peptides in combination with known antibiotics. FICs are performed by checkerboard titrations of peptides in one dimension of a microtiter plate, and of antibiotics in the other dimension, for example. The FIC is calculated by looking at the impact of one antibiotic on the MIC of the other and vice versa. […] Preferably, an FIC of less than 0.5 is obtained for synergism. As used herein, FIC can be determined as follows: [formula]
as §2

E. cloacae [3] = assay: MIC, broth dilution in LB-S; format: cell-based; settings: additional MICs
Protocol: as §3, §2

E. coli = assay: MIC, broth dilution in LB-S; format: cell-based
Protocol: as §3, §2

E. faecalis = assay: MIC, broth dilution in LB-S; format: cell-based; settings: Table 1b, separate set of experiments
Protocol: as §3, §2

K. pneumoniae = assay: MIC, broth dilution in LB-S; format: cell-based; settings: additional MICs
Protocol: as §3, §2

S. aureus = assay: MIC, broth dilution in LB-S; format: cell-based
Protocol: as §3, §2

X maltophilia = assay: MIC, broth dilution in LB-S; format: cell-based; settings: additional MICs
Protocol: as §3, §2

Candida albicans = assay: MIC, broth dilution in LB-S; format: cell-based
Protocol: as §1, §2

E. coli ML 35 = assay: Inner membrane permeabilization (ONPG hydrolysis by β-galactosidase); format: cell-based; settings: E. coli ML 35, ONPG
Protocol: Inner membrane permeability was determined by measurement in E. coli ML 35 of β-galactosidase activity using ONPG as a substrate. Normally ONPG cannot pass across the cytoplasmic membrane to permit hydrolysis by the cytoplasmic enzyme β-galactosidase. However, cationic peptides, by permeabilizing the inner membrane, unmasks this enzyme leading to color development as ONP is released. […] Addition of citrate increased the lag time before the peptides were able to permeabilize the membranes. When the experiments were executed in cation adjusted media (CAMHB), the lag time was increased up to 30 minutes.

LPS = assay: Dansyl polymyxin displacement assay; format: binding; settings: Dansyl polymyxin displacement from LPS
Description: In addition, the peptides of SEQ ID NO: 5-8 also bound effectively to LPS with high affinity based on Dansyl polymyxin displacement assays (Table 5).

Red Blood Cells = assay: Red blood cell lysis; format: cell-based; settings: concentration lysing Red Blood Cells
[4] = α helical content by CD spectra; format: physicochemical
Protocol: α Helical Content of Cationic Peptides by CD Spectra
The α helical content of the peptides were measured in buffer, liposomes and 20% Hexafluoroisopropanol (HFPIP). The liposomes constituted of POPC alone or POPC and POPC and 30% POPG (Table 7).

A. calcoaceticus [5] = settings: agent alone
Protocol: as §1
(§4) Synergism is identified as an FIC of about ≦0.5.

E. cloacae [6] = settings: agent alone
Protocol: as §1, §4

P. aeruginosa [7] = assay: microbe, parasite or virus in culture; settings: agent alone
Protocol: as §1, §4

X. maltophila = assay: organism not typed; settings: agent alone
Protocol: as §1, §4

CC[C@H](C)[C@H](NC(=O)[C@H](CC(C)C)NC(=O)[C@H](C)NC(=O)[C@@H]1CCCN1C(=O)[C@H](CC(C)C)NC(=O)CNC(=O)[C@@H](NC(=O)[C@@H](NC(=O)[C@H](CC(C)C)NC(=O)[C@@H](NC(=O)[C@H](CCCCN)NC(=O)[C@H](CCCCN)NC(=O)[C@@H](NC(=O)[C@H](C)NC(=O)[C@@H](NC(=O)[C@@H](NC(=O)[C@H](CC(C)C)NC(=O)[C@H](CCCCN)NC(=O)[C@H](CCCCN)NC(=O)[C@@H](NC(=O)[C@H](Cc1ccccc1)NC(=O)[C@H](CO)NC(=O)[C@H](CCCCN)NC(=O)[C@H](Cc1c[nH]c2ccccc12)NC(=O)[C@@H](N)CCCCN)[C@@H](C)CC)[C@@H](C)O)[C@@H](C)O)C(C)C)C(C)C)[C@@H](C)O)[C@@H](C)O)C(=O)N[C@@H](CO)C(=O)O [MBI 29]
MIC (P. aeruginosa [1]; P. aeruginasa (H 103), additional MICs): 4 µg/mL
MIC (P. aeruginosa [1]; P. aeruginosa (H187), Table 1a): 5 µg/mL
MIC (P. aeruginosa [1]; P. aeruginosa (H187), Table 1b, separate set of experiments): 16 µg/mL
MIC (P. aeruginosa [1]; P. aeruginosa (H187), Table 1b, separate set of experiments, listed as MBI 29^me): 8 µg/mL
MIC P. aeruginosa (H187) (P. aeruginosa [1]; P. aeruginosa (H187), Table 6): 1.0 µg/mL
MIC (S. epidermis; Table 1a): 10 µg/mL
MIC (S. epidermis; Table 1b, separate set of experiments): 16 µg/mL
MIC (S. epidermis; Table 1b, separate set of experiments, listed as MBI 29^me): 8 µg/mL
MIC (A. calcoaceticus [2]): 4 µg/mL
MIC (E. cloacae [3]): 2 µg/mL
MIC (E. coli; E. coli 0111:B4, additional MICs): 2 µg/mL
MIC (E. coli; E. coli (UB1005), Table 1a): 3 µg/mL
MIC (E. coli; E. coli (UB1005), Table 1b, separate set of experiments): 4 µg/mL
MIC E. coli (UB 1005) (E. coli; E. coli (UB 1005), Table 6): 0.5 µg/mL
MIC (E. coli; E. coli. Bort, additional MICs): 6 µg/mL
MIC (E. faecalis): 32 µg/mL
MIC (E. faecalis; listed as MBI 29^me): ≧64
MIC (K. pneumoniae): 16 µg/mL
MIC (S. aureus; S. aureus (K 147), Table 1a): 20 µg/mL
MIC (S. aureus; S. aureus (K147), Table 1b, separate set of experiments): 32 µg/mL
MIC (S. aureus; S. aureus (K147), Table 1b, separate set of experiments, listed as MBI 29^me): 16 µg/mL
MIC (S. aureus; S. aureus (SAP0017), Table 1a): 18 µg/mL
MIC (S. aureus; S. aureus (SAP0017), Table 1b, separate set of experiments): 32 µg/mL
MIC (S. aureus; S. aureus (SAP0017), Table 1b, separate set of experiments, listed as MBI 29^me): 16 µg/mL
MIC (X maltophilia): 3 µg/mL
MIC (Candida albicans; Candida albicans (CAN105), Table 1b, separate set of experiments): 32 µg/mL
MIC (Candida albicans; Candida alibicans (CAN105), Table 1a): 40 µg/mL
Lag Time (E. coli ML 35): 66 s
Rate of Hydrolysis (E. coli ML 35): 0.21 ΔAU min^−1
1max (LPS): 40%
RBC Lysis (Red Blood Cells): >55 µg/mL
% α helicity ([4]; 20% HFIP): 50%
% α helicity ([4]; Buffer): 0%
% α helicity ([4]; POPC Liposomes): 16%
% α helicity ([4]; POPC/POPG Liposomes (30% POPG)): 8%
MIC (A. calcoaceticus [5]; A. calcoaceticus isolate 1, strain ATCC 23055): 32 µg/mL and 64 µg/mL
MIC (A. calcoaceticus [5]; A. calcoaceticus isolate 7, strain 8222): 16 µg/mL and 32 µg/mL
MIC (A. calcoaceticus [5]; A. calcoaceticus isolate 8, strain 8223): 16 µg/mL and 32 µg/mL
MIC (A. calcoaceticus [5]; A. calcoaceticus isolate 9, strain 8224): 16 µg/mL and 32 µg/mL
MIC (A. calcoaceticus [5]; A. calcoaceticus isolate 10, strain 8225): 16 µg/mL and 32 µg/mL
MIC (A. calcoaceticus [5]; A. calcoaceticus isolate 11, strain 8226): 16 µg/mL and 32 µg/mL
MIC (E. cloacae [6]; E. cloacae isolate 12, strain ATCC 13047): 32 µg/mL and 64 µg/mL
MIC (E. cloacae [6]; E. cloacae isolate 14, strain 938-2): 32 µg/mL and 16 µg/mL
MIC (E. cloacae [6]; E. cloacae isolate 15, strain B5546): 32 µg/mL
MIC (E. cloacae [6]; E. cloacae isolate 17, strain R4148-2): 16 µg/mL and 32 µg/mL
MIC (E. cloacae [6]; E. cloacae isolate 18, strain 3077): 32 µg/mL
MIC (E. cloacae [6]; E. cloacae isolate 19, strain 3356): 32 µg/mL
MIC (P. aeruginosa [7]; P. aeruginosa isolate 23, strain ATCC 27853): 32 µg/mL and 64 µg/mL
MIC (P. aeruginosa [7]; P. aeruginosa isolate 24, strain 34): 32 µg/mL and 16 µg/mL
MIC (P. aeruginosa [7]; P. aeruginosa isolate 25, strain 923-1): 32 µg/mL and 64 µg/mL
MIC (P. aeruginosa [7]; P. aeruginosa isolate 26, strain 3101): 32 µg/mL and 64 µg/mL
MIC (P. aeruginosa [7]; P. aeruginosa isolate 29, strain 15545): 32 µg/mL and 64 µg/mL
MIC (P. aeruginosa [7]; P. aeruginosa isolate 32, strain W2897-1): 32 µg/mL and 64 µg/mL
MIC (X. maltophila; X. maltophila isolate 35, strain 6): 32 µg/mL and 16 µg/mL
MIC (X. maltophila; X. maltophila isolate 36, strain 16): 32 µg/mL
MIC (X. maltophila; X. maltophila isolate 37, strain 3095): 64 µg/mL
MIC (X. maltophila; X. maltophila isolate 38, strain 7901): 64 µg/mL
MIC (X. maltophila; X. maltophila isolate 39, strain B3110.1): 32 µg/mL
MIC (X. maltophila; X. maltophila isolate 40, strain R1302-1): 32 µg/mL and 64 µg/mL
MIC (X. maltophila; X. maltophila isolate 41, strain R4230): 16 µg/mL and 32 µg/mL
MIC (X. maltophila; X. maltophila isolate 43, strain TF29-2): 16 µg/mL and 32 µg/mL
